Laboratory results as given in PMC3605653 (The Journal of Biological Chemistry, 2013).

What was measured:
[1] = target: T1, ELIC (Erwinia chrysanthemi ligand-gated ion channel) (Dickeya chrysanthemi, UniProt P0C7B7); assay: two-electrode voltage clamp, Xenopus oocytes; format: cell-based
T1 sequence (P0C7B7 1-321): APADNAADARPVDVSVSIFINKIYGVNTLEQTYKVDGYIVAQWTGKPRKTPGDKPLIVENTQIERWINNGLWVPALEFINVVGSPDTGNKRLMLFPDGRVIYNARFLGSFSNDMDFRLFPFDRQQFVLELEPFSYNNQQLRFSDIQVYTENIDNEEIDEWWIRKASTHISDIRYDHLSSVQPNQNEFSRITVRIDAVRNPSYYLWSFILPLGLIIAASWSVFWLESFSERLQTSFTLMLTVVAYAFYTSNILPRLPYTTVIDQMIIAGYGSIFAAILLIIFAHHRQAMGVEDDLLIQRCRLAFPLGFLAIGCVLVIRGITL

[2] = target: T1, ELIC (Erwinia chrysanthemi ligand-gated ion channel); assay: two-electrode voltage clamp, Xenopus oocytes; format: cell-based; details: agonist; pH 7.4, 18 °C, -60 mV; concentration used as EC20
[3] = target: ELIC (Erwinia chrysanthemi ligand-gated ion channel) (Dickeya chrysanthemi, UniProt P0C7B7, F273A/L239S); assay: cell-based; details: read-out: remaining EC20 current (%) at 200 μM
[4] = target: ELIC (Erwinia chrysanthemi ligand-gated ion channel) (Dickeya chrysanthemi, UniProt P0C7B7, L239S/W223A); assay: cell-based; details: read-out: remaining EC20 current (%) at 200 μM

EC20 [2] [µM]	SMILES	IC50 [1] [µM]	remaining activity at 200 µM [3] [%]	remaining activity at 200 µM [4] [%]
–	ClC(Cl)Cl [chloroform]	162 ± 26	–	–
3000	NCCCC(=O)O [GABA]	–	–	–
–	BrC(Br)Br [bromoform]	125 ± 10	78 ± 4	81 ± 6
